“Also recorded” adds a separate entry of the source.
Tests used:
[1] = system: matured human monocyte-derived DC; assay: Antigen uptake assay, matured human DC; format: cell-based; details: matured human DC, OVA-FITC
Description: FIGS. 2A to 2G are a series of pictures showing that a kinase activated pathway regulates antibody-induced antigen uptake by matured DC. Matured human monocyte-derived DC were treated with the MTAb B7-DC XAb for varying time periods and evaluated for the phosphorylation status of select signaling pathway intermediates by immunoprecipitation with DAP12 (MC457), Syk (4D10), and PLCγ1 (MC490) reactive antibodies followed by western blot analysis using the phosphotyrosine reactive antibody 4G10 as a probe (FIGS. 2A-2C). Samples of the cells blocked with indicated concentration of piceatannol (FIG. 2D) or with […] of piceatannol (FIG. 2E) were analyzed for phosphorylation of Syk (FIG. 2D) and PLCγ1 (FIG. 2E). To investigate the functional importance of these signaling intermediates in the regulation of antigen uptake by matured DC activated with B7-DC XAb, varying concentrations of pharmacologic inhibitors were used to block the activity of p72Syk (piceatannol) and PLCγ1 (U73122) (FIGS. 2F and 2G, respectively). Antigen uptake was assessed by pulsing cultures with FITC-conjugated ovalbumin and measuring intracellular fluorescence 16 hours later in CD11c positive cells by flow cytometry.
Human DC were generated from peripheral blood CD14^+ monocytes by incubation in GM-CSF and IL-4 for five days. […] All cultures were pulsed with OVA-FITC at the time of treatment with IgM antibodies, and […] OVA-FITC was assessed 24 hours later by flow cytometry.
FIGS. 4A and 4B are a series of plots showing the effects of kinase inhibitors on OVA-FITC uptake by matured human DC, as determined by flow cytometry. […] All cells were pulsed with OVA-FITC at the time of treatment with IgM antibody, and CD11c+ cells were analyzed for OVA-FITC uptake 24 hours later by flow cytometry. […]
Antigen uptake experiments were carried out as described previously (Radhakrishnan et al. (2005) Proc. Natl. Acad. Sci. U.S.A. 102:11438-11443). […] The matured cells were incubated with ovalbumin labeled with FITC or APC and control antibody or B7-DC XAb for two hours, washed and analyzed by FACSCALIBUR™ (Becton Dickinson). […]

[2] = system: mouse bone marrow-derived DC; assay: IL-6 ELISA of DC supernatants; format: cell-based; details: 48 hours
Description: Six day mouse bone marrow-derived DC from wild type or IL-6 KO mice were stimulated with isotype control antibody sHIgM39 or B7-DC XAb. IL-6 levels in culture supernatants were assessed 48 hours later by ELISA.
DC of wild type origin or from CD40 deficient mice were stimulated with 10 μg/ml control antibody or B7-DC XAb for 48 hours. Supernatants from the different treatment groups were harvested and quantified for the amount of IL-6 by sandwich ELISA as per the manufacturer's protocol (eBioscience, San Diego, Calif.).

bone-marrow derived DCs = assay: FRET on DCs expressing Kb-peptide constructs; format: cell-based, mouse
Description: Kb, Kb-12p9A, Kb-22p3, and Kb-22p12p were placed in a VSV-G pseudotyped pBabe Puro retroviral vector, a vector based on the Maloney Murine Retrovirus. […] Retrovirus was produced by transient […] of 293T cells, and supernatant was concentrated 100:1 by ultracentrifugation on a 10% sucrose cushion. The retrovirus was titered with a colony forming unit assay of HT-1080 cells transduced with limiting dilutions of the supernatant concentrate, followed by selection with 2 ug/mL puromycin. To make DCs, bone marrow was harvested from Balb/c, C57BL6 mice or B7DC−/− mice on a C57BL6 background.
Bone marrow was placed in RPMI+10% Cosmic Calf Serum with 1 ng/mL IL-4 and 10 ng/mL GM-CSF, and plated at 10^6/mL in 24 well plates. On day 2 post-plating, media was aspirated; fresh media was added with 0.5 MOI retrovirus and 4 ug/mL polybrene. Using this system, the peptide constructs were expressed in cultured DCs (FIG. 13).
To directly compare the activity of the MTabs hIgM12 and hIgM22, a series of well-defined biological outputs of treatment of wild type DCs with hIgM12 was used. FRET was used as an output for formation of the multimolecular cap seen upon binding of hIgM12 to wild type DCs. The emission of phycoerythrin (PE) was used to excite APC, which normally emits in the FL4 channel but under FRET emits in the FL3 channel. Experiments were conducted to test FRET of CD40-PE to Class II APC, and CD80-PE to Class II APC (FIG. 14). Either wild type C57BL6 DCs or B7DC−/− DCs transduced with either B7DC or the Kb constructs were used. DCs were stained with the fluorochrome-labeled antibodies, and then treated for 15 minutes at 37° C. with 10 μg/mL of either hIgM12, hIgM22, or 28-13-3.

B7-DC (PD-L2) = details: cited from earlier work

For “B7-DC XAb: human monoclonal IgM from a Waldenstrom's macroglobulinemia patient that binds and cross-links B7-DC on DC”, the “antigen uptake by matured DC” value [1] was “regaining the ability to take up antigen; also recorded: take up ovalbumin when activated”, the IL-6 secretion ([2]; DC from CD40 KO mice) was “absence of NF-κB activation and IL-6 secretion; also recorded: do not secrete IL-6” and the IL-6 secretion ([2]; DC from wild type mice) was “producing IL-6”. The FRET response (bone-marrow derived DCs; B7DC−/− DCs with restored B7DC expression) was “responded as well”, the FRET response (bone-marrow derived DCs; B7DC−/− Kb-12p9A DCs) was “responded” and the FRET response (bone-marrow derived DCs; B7DC−/− Kb-22p12p DCs) was “responded”. For the same substance, the “FRET response (CD40-PE or CD80-PE to Class II APC)” value (bone-marrow derived DCs; wild type DCs, 10 μg/mL, 15 minutes) was “responded” and the “binding to B7-DC on the surface of DC” value (B7-DC (PD-L2)) was “binds”.

— US11274131B2, “IgM-mediated receptor clustering and cell modulation” (MAYO FOUNDATION FOR MEDICAL EDUCATION AND RESEARCH, priority 2007, dated 2022)
